Experiments:
xenograft tumor models = experiment: Xenograft tumor models; details: in vivo
[1] = tested on: CRPC patients with evidence of bone metastases; experiment: Adaptive phase 2 trial (NCT00940225), case studies of the first three CRPC patients with bone metastases; assay type: in vivo, human; details: for PSA / serum tALP levels: Week 18
Method: In 2000, local disease recurrence was treated with radiation therapy. […] CAB with leuprolide and bicalutamide was initiated. […] All patients provided informed consent before study screening.

[2] = tested on: murine pancreatic neuroendocrine tumor model; experiment: Murine pancreatic neuroendocrine tumor model; details: mouse, in vivo

COc1cc2nccc(Oc3ccc(NC(=O)C4(C(=O)Nc5ccc(F)cc5)CC4)cc3)c2cc1OC [Compound 1, N-(4-{[6,7-bis(methyloxy)quinolin-4-yl]oxy}phenyl)-N′-(4-fluorophenyl)cyclopropane-1,1-dicarboxamide]
effect on tumors in xenograft tumor models (xenograft tumor models): tumor regression | increase in hemoglobin ([1]; Patient 1, Week 2 compared with baseline): 1.4 g/dL | radiotracer uptake by bone metastases on bone scan ([1]; Patient 1, Week 6): dramatic decrease | bone lesions ([1]; Patient 1, Week 12): near complete resolution | PSA ([1]; Patient 1, 430 ng/mL at baseline): 93.5 ng/mL | serum tALP levels ([1]; Patient 1, 689 U/L at baseline): 159 U/L | bone pain ([1]; Patient 1, four weeks after start): significant reduction | bone pain ([1]; Patient 2, Week 4): reduction | radiotracer uptake by bone lesions on bone scan ([1]; Patient 2, Week 6): slight flair | radiotracer uptake ([1]; Patient 2, Week 12): substantial reduction | hemoglobin increase ([1]; Patient 2, Week 12 compared with baseline): 1.8 g/dL | PSA peak ([1]; Patient 2, Week 16, after placebo Week 12 to 15, crossed over to Compound 1 at Week 15): ~6 fold of baseline | PSA ([1]; Patient 2, subsequent to crossing over to Compound 1 from placebo): 2 fold of baseline | hemoglobin increase ([1]; Patient 3, Week 2 compared with baseline): 2.2 g/dL | radiotracer uptake on bone scan ([1]; Patient 3, Week 6): dramatic reduction | bone lesions on bone scan ([1]; Patient 3, Week 12): complete resolution | PSA ([1]; Patient 3, 2.4 ng/mL at screening): 1.2 ng/mL | serum tALP levels ([1]; Patient 3, 869 U/L at baseline): 197 U/L | pain ([1]; Patient 3, after three weeks): complete resolution | uptake of radiotracer on bone scan ([1]; all three patients, summary): striking decrease | bone lesions ([1]; three metastatic CRPC patients, summary): near complete resolution | overall survival [2]: substantially improves | tumor invasiveness and metastasis [2]: significantly reduces
